The test deals with chorioallantoic membrane (CAM) vascularization. Kind of test: Treatments on the chorioallantoic membrane (CAM), fluorescein angiography. The test is classed as in vivo, chicken embryo. As to conditions: impregnated sponge on CAM at ED9; oligopeptide 250 μg/mL (9 hours), VEGF 10 ng/mL. The source says: In fact, TSP-1 is known for inducing the apoptosis of endothelial cells. […] It is also a decisive process under certain physiological and pathological conditions (cancers in particular). This mechanism is controlled by numerous factors having either an inhibitor potential or an activator. So as to evaluate the main properties of these in vivo factors, the most common model is the CAM (chorioallantoic membrane) model from the chicken embryo (Ribatti et al., 2000). It offers the advantage of making it possible to test the pro- or anti-angiogenic factors during an active angiogenesis phase between the embryonic stages 4j and 10j. The major effects of the various molecules can therefore be evaluated in vivo. The model of the CAM can also be used in experimental tumor development. The grafting of human cancer cells onto the surface of the CAM is carried out in the 9-day embryonic stage. Three days after the grafting at ED12, the formation of a tumor is visible at the surface of the CAM. The latter can be treated topically during the 48 hours that follow this stage, and the tumors are sampled at ED14j. The fertilized eggs (Haas Poultry Farm, Strasbourg, France) are kept for 24 hours at 18° C. before the incubation is started up. […] The embryonic stages are determined from tables of Hamburger and Hamilton (H and H, 1951). […]

As for VEGF, the “Vascularization / microvascularization of the CAM (in words)” value is “the microvascularization is dense and comprises numerous vascular branches”.

(Values after patent US20190255144A1, “SPECIFIC OLIGOPEPTIDES AS ANTI-ANGIOGENIC DRUGS” (NEURONAX, priority 2014, published 2019).)
